Entries after “also recorded” stand apart in the source; their conditions may differ. Each block holds one molecule with its values, some of them ahead of it.
How the values were obtained:
Solubility = assay type: physicochemical; conditions: Table 3
Tau-FynSH3 interaction = Tau-FynSH3 interaction (Homo sapiens (Human), UniProt P10636); assay: Tau-FynSH3 AlphaScreen; assay type: binding; conditions: Table 3; read-out: Alpha screen IC50
From the text: Human Fyn-SH3 domain with GST-tag at the N-terminus and a Strep-tag II ([…]) at the C-terminus (GST-Fyn-SH3-Strep) was cloned into pPR-IBA1 vector (IBA Lifesciences) (Cochran, et al. (2014) J. Biomol. Screen. 19, 1338-1349). Codon-optimized human 4R2N Tau for E. coli expression with a Strep-tag II at the C-terminus (His-Tau-Strep) was cloned into pET-28a(+) vector (Novagen). The constructs were transformed into E. coli BL-21(DE3) competent cells (Novagen). For GST-Fyn-SH3-Strep purification, a single colony was inoculated in Luria-Bertani (LB) broth at 37° C. overnight. 10 mL cell culture was added into 500 mL LB medium and cultured at 37° C. 0.5 mM Isopropyl β-D-1-thiogalactopyranoside (IPTG) was added into the culture when OD600 reached 0.7. Cells were further cultured at 25° C. for 4 hours and harvested. Cell pellet was resuspended in lysis buffer (20 mM Tris pH 7.9, 300 mM NaCl, 1 mM TCEP) with 1 tablet of EDTA-free protease inhibitors (ThermoFisher) and 1 mg/ml lysozyme. Cells were disrupted by sonication and debris was removed by centrifugation at 9500 rpm for 1 hour. Supernatant was loaded onto a glutathione-sepharose column (Cytiva). The column was washed in lysis buffer and protein eluted in lysis buffer containing 25 mM reduced glutathione. For His-Tau-Strep protein purification, cells were inoculated in LB broth medium and cultured at 37° C. overnight. A 10 mL overnight culture was added to 500 mL of auto-induction medium (Studier, F. W. (2005) Protein Expr Purif 41, 207-34) and cells were cultured at 37° C. for about 5 hours. The temperature was lowered to 18° C., and cells were cultured overnight. Cells were harvested and resuspended in lysis buffer with 20 mM imidazole, protease inhibitors, and lysozyme. Cells were disrupted by sonication and cell pellets were spun down at 9500 rpm for 1 hour. Supernatant was loaded onto Ni-NTA column (Cytiva) and the column was washed in lysis buffer with 20 mM imidazole. His-Tau-Strep protein was eluted in lysis buffer containing 400 mM imidazole. Both eluted GST-Fyn-SH3-Strep and His-Tau-Strep protein solutions were passed through G-25 desalting column (Cytiva) with lysis buffer and loaded onto high capacity Strep-Tactin column (IBA Lifesciences). The columns were washed in Buffer W (IBA Life sciences) and proteins were eluted in Buffer E (IBA life sciences). The eluted proteins were passed through G-25 desalting column again. Both GST-Fyn-Strep and His-Tau-Strep proteins were concentrated and diluted 1:1 in ethylene glycol as a cryoprotectant for storage at −80° C.
AlphaScreen was conducted with 10 µg/mL of glutathione donor beads (PerkinElmer, Waltham, MA) and nickel chelate acceptor beads (PerkinElmer) in 10 mM Bis-Tris (pH 7.0), 1 mM TCEP, 0.02% casein, and 0.1% Tween-20. Compounds were plated first followed by addition of one the proteins at 600 nM and incubation for 30 min. The second protein was added and incubated for 30 mn, then the beads were added simultaneously and the final mixture was incubated for 2 hours. Experiments were conducted in 384-well plates (6007290; PerkinElmer) and results were read on a PHERAstar plate reader (BMG Labtech, Cary, NC).
˜50,000 compounds from the Enamine and Southern Research libraries were screened to identify Tau-FynSH3 interaction inhibitors using an AlphaScreen assay (Cochran, et al. (2014) J. Biomol. Screen. 19, 1338-1349). Compounds that were >3 standard deviations above mean inhibition were selected, yielding 1,852 hits (FIG. 1A). […]. These 39 compounds were tested in a live-cell BRET assay to measure Tau-Fyn interaction in cells. […]. Screen. 19, 1338-1349).

[1] = Metabolic stability in human liver microsomes; assay type: in vitro ADME; conditions: Table 3, read-out: ADME t1/2 (min): HLMt1/2
From the text: (§1) A computational analysis of the top five hits was then completed to assess the physical attributes of the compounds emerging from the HTS. The target profile for drug-like properties included evaluation of molecular weight (MW), total polar surface area (PSA, the surface sum of all polar atoms on the molecule), solubility, metabolic stability, and partition coefficient (LogD). In general, MW<[…] and PSA <70 Å^2 were targeted, which generally allows for blood-brain barrier (BBB) permeability. Compounds with PSA >100 A^2 are generally poor at permeating cell membranes. Solubility was targeted at >10 μM at pH 7.4 and 40-60% of compound remaining after 60 minutes of incubation in mouse or human liver microsomes (an indicator of compound stability after first-pass metabolism). LogD is the log of the ratio of concentrations of a compound in two immiscible solvents at equilibrium. Values ranging from 2-4 were targeted, typical for CNS drugs. Based on these criteria, compound no. 55 was selected as the top hit for optimization. Compound no.

[2] = Metabolic stability in mouse liver microsomes; assay type: in vitro ADME; conditions: mouse, liver microsomes, Table 3, read-out: ADME t1/2 (min): MLMt1/2
[3] = Partition coefficient (LogD); assay type: physicochemical; conditions: Table 3; read-out: ADME LogD
From the text: as §1

primary rat neurons = assay: Modified MTT assay of Aβ toxicity in primary neurons; assay type: cell-based; conditions: Table 3; Aβ toxicity in primary neurons
From the text: Primary neuron cultures: All animal procedures were approved by the Institutional Animal Care and Use Committee at the University of Alabama at Birmingham (UAB). As before (Rush, et al. (2020) Neurobiol Dis 134, 104668; Voskobiynyk, et al. (2020) eLife 9, e57354), primary rat neurons were isolated from timed-pregnant Sprague-Dawley rats. Briefly, dams were euthanized with isoflurane anesthesia asphyxiation, and hippocampal tissue was isolated from E19 embryos in Hibernate E, then digested in papain for 10 minutes at 37° C. Neurons were triturated into a single cell suspension in Neurobasal supplemented with B-27, L-Glutamine, and 10% FBS, then plated in 96-well plates coated with PDL and laminin at 30,000 neurons per well in 200 uL medium or in 24-well coated plates with or without coverslips at 50,000 per well. Cultures were maintained at 37° C. with 5% CO2. Twenty-four hours after plating (DIV1), two 50% media changes with Neurobasal plus B-27 and L-Glutamine without FBS, and 5 μM cytosine β-D-arabinofuranoside was added to prevent glial proliferation. 50% media changes were performed at DIV7 and DIV14 with serum-free supplemented Neurobasal and experiments were started at DIV19.
Aβ oligomer preparation: As before (Rush, et al. (2020) Neurobiol Dis 134, 104668), lyophilized recombinant Aβ42 was dissolved in HFIP, dried overnight, then stored at −20° C. until oligomerization. To oligomerize, Aβ was dissolved in DMSO to 1 mM, then diluted to 100 µM in PBS, then sonicated and left on ice for 24 hours. Immediately prior to use, Aβ was centrifuged at 4° C. for 10 minutes at 14,000×g. Vehicle was prepared as well in identical fashion except lacking the Aβ peptide.
Aβ toxicity assays: The modified MTT and MAP2 assays were adapted from a recent study (Rush, et al. (2020) Neurobiol Dis 134, 104668). Briefly, at DIV19, media on the neurons was reduced to […], then compound was added to final concentration of 0 μM, 0.3 μM, 3 μM, or 15 μM with even amounts of DMSO. After 90-minute pretreatment with compound, 2.5 μM Aβ was added.
The modified MTT assay was performed 24 hours after Aβ application. 100 μM MTT was applied to neurons and incubated at 37° C. for one hour. Media was removed, then replaced with 15 μL 1.6% Tween20 in PBS and incubated on a shaker at 100 rpm for 5 minutes. The Tween was then removed and transferred to a 384-well clear-bottom plate and replaced with 15 μL isopropanol. Plates were again agitated for 5 minutes at RT, then isopropanol was transferred to the 384-well plate. Absorbance was then read at 590 nm on a plate reader, with 660 nm used as a reference. The ratio of Tween soluble MTT to isopropanol soluble (Tween-insoluble) MTT was calculated for each sample, then normalized to the vehicle group average.

Tau-Fyn interaction = Tau-Fyn interaction (Homo sapiens (Human), UniProt P10636); assay: Tau-Fyn PLA screening in HEK-293 cells; assay type: cell-based; conditions: Table 3; Tau-Fyn PLA
Chain of Tau-Fyn interaction (P10636 other isoform, or with tags, fused parts or gaps): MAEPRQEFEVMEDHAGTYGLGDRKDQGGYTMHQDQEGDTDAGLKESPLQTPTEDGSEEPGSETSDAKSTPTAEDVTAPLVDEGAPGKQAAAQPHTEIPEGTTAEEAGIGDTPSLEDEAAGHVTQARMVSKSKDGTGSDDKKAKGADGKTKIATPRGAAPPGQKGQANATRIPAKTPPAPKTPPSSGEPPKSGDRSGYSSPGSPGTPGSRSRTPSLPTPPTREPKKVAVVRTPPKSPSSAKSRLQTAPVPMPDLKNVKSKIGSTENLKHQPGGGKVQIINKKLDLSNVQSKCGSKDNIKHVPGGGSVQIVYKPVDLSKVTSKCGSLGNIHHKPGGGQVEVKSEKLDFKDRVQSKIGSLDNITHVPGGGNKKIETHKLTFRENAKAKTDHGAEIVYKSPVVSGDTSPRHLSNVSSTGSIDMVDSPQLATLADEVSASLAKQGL
Method: Tau-Fyn PLA screening in HEK-293 cells: For Tau-Fyn PLA in HEK-293 cells, we used the same plasmids as before (Rush, et al. (2020) Neurobiol Dis 134, 104668): human 4R2N Tau with an N-terminal mKate2 tag in a pcDNA3.1 vector and human Fyn with an N-terminal Myc tag in a pCMV-Sport6 vector grown in Stellar E. coli. HEK-293 cells were plated on coverslips coated with PDL and laminin in a 24-well plate in DMEM supplemented with 10% FBS and 1% PenStrep. Cells were transfected with 125 ng of Tau-mKate2 and Fyn plasmids with 1.5 μL Fugene in plain DMEM. After 24 hours, compound was applied at 15 μM. Twenty-four hours after application, cells were fixed. PLA protocol was the same as above except for different primary antibodies (Tau5 1:500, Fyn3 1:250). After image acquisition, PLA density was calculated as PLA puncta (as above) divided by cell area to account for differences in confluency. Cell area was defined with ImageJ as % Area after theresholding Tau-mKate2 fluorescence because it filled the cells evenly. Puncta/cell area was then normalized to vehicle-treated slides from that experiment.

[4] = Phase IIa, van Dyck et al. 2019; cited from earlier work
97 kinases = assay: Eurofins DiscoverX ScanEDGE kinase panel; assay type: biochemical; conditions: compound no. 69 at 3 μM; saracatinib stock 30 μM = 1000× testing concentration; activity = <35% of control
From the text: 69 and compound no. […] Since Fyn was not included in that panel, a custom panel was completed for Fyn kinase activity.

[5] = test system: Sam68(PxxP)-FynSH3 interaction; conditions: Oneyama et al. 2002; cited from earlier work

Chain of Tau-FynSH3 interaction (P10636 other isoform, or with tags, fused parts or gaps): as above

Molecule: COc1ccc2c(c1)N(CC(=O)Nc1nnc(-c3ccccn3)[nH]1)C(=O)CS2 [compound 22, 2-(6-METHOXY-3-OXO-2H-BENZO[B][1,4]THIAZIN-4(3H)-YL)-N-(5-(PYRIDIN-2-YL)-4H-1,2,4-TRIAZOL-3-YL)ACETAMIDE]
PLA (Tau-Fyn interaction): Active
ADME Sol (μM) (Solubility): Sol = 80 μM
half-life [1]: 150 min
half-life [2]: 56 min
logD [3]: 1.8
MTT (primary rat neurons): Active

Molecule: CN1CCN(CCOc2cc(OC3CCOCC3)c3c(Nc4c(Cl)ccc5c4OCO5)ncnc3c2)CC1 [saracatinib, reference compound]
clinical benefit in AD [4]: showed no clinical benefit in AD at a tolerable dose
kinase inhibition, panel of 97 kinases (97 kinases): inhibited several Src family kinases; also recorded: inhibits Src, Fyn, Abl, and EGFR kinase activity

Molecule: O=C(CN1C(=O)CSc2ccc(Cl)cc21)Nc1nnc(-c2ccccn2)[nH]1 [compound 16, 2-(6-CHLORO-3-OXO-2H-BENZO[B][1,4]THIAZIN-4(3H)-YL)-N-(5-(PYRIDIN-2-YL)-4H-1,2,4-TRIAZOL-3-YL)ACETAMIDE]
ADME Sol (μM) (Solubility): Sol = 9 μM
IC50 (Tau-FynSH3 interaction): 2.58 µM
half-life [1]: 74 min
half-life [2]: 26 min
logD [3]: 2.3

Molecule: UCS15A
Sam68(PxxP)-FynSH3 interaction [5]: inhibits Sam68(PxxP)-FynSH3 interaction

The next lines start with results.

ADME Sol (μM) (Solubility): Sol = 24 μM
IC50 (Tau-FynSH3 interaction): 2.72 µM
half-life [1]: 62 min
half-life [2]: 18 min
logD [3]: 2.3
Molecule: O=C(CCN1C(=O)CSc2cc(Cl)ccc21)Nc1nnc(-c2ccccn2)[nH]1 [compound 8, 3-(7-CHLORO-3-OXO-2H-BENZO[B][1,4]THIAZIN-4(3H)-YL)-N-(5-(PYRIDIN-2-YL)-4H-1,2,4-TRIAZOL-3-YL)PROPANAMIDE]
MTT (primary rat neurons): Active

ADME Sol (μM) (Solubility): Sol = 46 μM
IC50 (Tau-FynSH3 interaction): 1.03 µM
half-life [1]: 175 min
half-life [2]: 53 min
logD [3]: 1.7
Molecule: COc1ccc2c(c1)SCC(=O)N2CC(=O)Nc1nnc(-c2ccccn2)[nH]1 [compound 21, 2-(7-METHOXY-3-OXO-2H-BENZO[B][1,4]THIAZIN-4(3H)-YL)-N-(5-(PYRIDIN-2-YL)-4H-1,2,4-TRIAZOL-3-YL)ACETAMIDE]

ADME Sol (μM) (Solubility): Sol = 81 μM
IC50 (Tau-FynSH3 interaction): 2.97 µM
half-life [1]: 53 min
half-life [2]: 20 min
logD [3]: 1.8
Molecule: O=C(CCN1C(=O)CSc2cc(F)c(F)cc21)Nc1nnc(-c2ccccn2)[nH]1 [compound 9, 3-(6,7-DIFLUORO-3-OXO-2H-BENZO[B][1,4]THIAZIN-4(3H)-YL)-N-(5-(PYRIDIN-2-YL)-4H-1,2,4-TRIAZOL-3-YL)PROPANAMIDE]

ADME Sol (μM) (Solubility): Sol = 69 μM
IC50 (Tau-FynSH3 interaction): 1.92 µM
half-life [1]: 78 min
half-life [2]: 22 min
logD [3]: 2
Molecule: O=C(CCN1C(=O)CSc2cc(F)ccc21)Nc1nnc(-c2ccccn2)[nH]1 [compound 7, 3-(7-FLUORO-3-Oxo-2H-BENZO[B][1,4]THIAZIN-4(3H)-YL)-N-(5-(PYRIDIN-2-YL)-4H-1,2,4-TRIAZOL-3-YL)PROPANAMIDE]

Reference: patent publication US20250367209A1 (SOUTHERN RESEARCH INSTITUTE, priority 2022, published 2025)
